T1: E. coli purine nucleoside phosphorylase (PNP) (Escherichia coli, UniProt P0ABP8)
T1 construct: gene deoD
T1 sequence (P0ABP8 2-239): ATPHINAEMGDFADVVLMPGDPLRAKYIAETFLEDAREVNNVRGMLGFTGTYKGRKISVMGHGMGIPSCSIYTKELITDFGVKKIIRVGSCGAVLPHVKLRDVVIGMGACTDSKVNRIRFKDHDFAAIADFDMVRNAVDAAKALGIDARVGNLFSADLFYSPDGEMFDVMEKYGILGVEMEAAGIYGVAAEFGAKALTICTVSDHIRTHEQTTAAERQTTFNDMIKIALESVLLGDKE


Tests used:
[1] = molecular target: T1, E. coli purine nucleoside phosphorylase (PNP); assay: HPLC inosine phosphorolysis assay with recombinant enzyme, non-competitive inhibition kinetics; assay type: biochemical
[2] = substrate: OC[C@H]1O[C@@H](n2cnc3c(O)ncnc32)[C@H](O)[C@@H]1O; assay: purified protein; assay type: biochemical, Escherichia coli; settings: phosphate active site

| Molecule | Ki [1] [mM] | Km [2] [µM] | kcat [2] [s⁻¹] |
| --- | --- | --- | --- |
| Nc1ccncc1-c1cnn([C@@H]2C[C@H](O)[C@@H](O)[C@H]2O)c1 [compound 1, 1-(2′,3′,4′-Trihydroxycyclopent-1′-yl)-4-(4-aminopyridin-3-yl)pyrazole] | 17 ± 4 | – | – |
| Nc1ncccc1-c1cnn([C@@H]2C[C@H](O)[C@@H](O)[C@H]2O)c1 [compound 2, 1-(2′,3′,4′-Trihydroxycyclopent-1′-yl)-4-(2-aminopyridin-3-yl)pyrazole] | 14 ± 1 | – | – |
| Nc1ncncc1-c1cnn([C@@H]2C[C@H](O)[C@@H](O)[C@H]2O)c1 [compound 3, 1-(2′,3′,4′-Trihydroxycyclopent-1′-yl)-4-(4-aminopyrimidin-3-yl)pyrazole] | 24 ± 3 | – | – |
| E. coli purine nucleoside phosphorylase (PNP) (Escherichia coli K-12) (protein) ATPHINAEMGDFADVVLMPGDPLRAKYIAETFLEDAREVNNVRGMLGFTGTYKGRKISVMGHGMGIPSCSIYTKELITDFGVKKIIRVGSCGAVLPHVKLRDVVIGMGACTDSKVNRIRFKDHDFAAIADFDMVRNAVDAAKALGIDARVGNLFSADLFYSPDGEMFDVMEKYGILGVEMEAAGIYGVAAEFGAKALTICTVSDHIRTHEQTTAAERQTTFNDMIKIALESVLLGDKE | – | 130 ± 10 | 900 ± 60 |
